In patent US10683297B2 (Sunshine Lake Pharma Co., Ltd., priority 2017, dated 2020):
Marks after values point to notes of the source that are not given here.

Assays:
JAK1 (h) = target: T1, JAK1 (h) (Homo sapiens, UniProt P23458); assay: JAK1 (h) kinase assay; type: biochemical; settings: [γ-33P-ATP] 10 μM or KM values; 40 minutes at room temperature
T1 construct: purchased Millipore UK Ltd (assays performed there as a service)
Method: (§1) The above assay procedure can be used to determine the IC50 for inhibition and/or the inhibition constant, Ki. […] The IC50 value is estimated by preparing a 10 point curve using a ½ log dilution series (for example, a typical curve may be prepared using the following compound concentrations: 3 μM, 1 μM, 0.3 μM, 0.1 μM, 0.03 μM, 0.01 μM, 0.003 μM, 0.001 μM, 0.0003 μM and 0 μM).
(§2) JAK1 (h) is incubated with 20 mM Tris/HCl pH 7.5, 0.2 mM EDTA, 500 μM […], 10 mM MgAcetate and [γ-^33P-ATP] […] The reaction is initiated by the addition of the MgATP mix. After incubation for 40 minutes at room temperature, the reaction is stopped by the addition of 3% phosphoric acid solution. 10 μL of the reaction is then spotted onto a P30 filtermat and washed three times for 5 minutes in 75 mM phosphoric acid and once in methanol prior to drying and scintillation counting.
(§3) The kinase assays described herein were performed at Millipore UK Ltd, Dundee Technology Park, Dundee DD2 1SW, UK.

JAK2 (h) = target: T2, JAK2 (h) (Homo sapiens, UniProt O60674); assay: JAK2 (h) kinase assay; type: biochemical; settings: [γ-33P-ATP] 10 μM or KM values; 40 minutes at room temperature
T2 construct: purchased Millipore UK Ltd (assays performed there as a service)
T2 sequence (O60674 whole entry): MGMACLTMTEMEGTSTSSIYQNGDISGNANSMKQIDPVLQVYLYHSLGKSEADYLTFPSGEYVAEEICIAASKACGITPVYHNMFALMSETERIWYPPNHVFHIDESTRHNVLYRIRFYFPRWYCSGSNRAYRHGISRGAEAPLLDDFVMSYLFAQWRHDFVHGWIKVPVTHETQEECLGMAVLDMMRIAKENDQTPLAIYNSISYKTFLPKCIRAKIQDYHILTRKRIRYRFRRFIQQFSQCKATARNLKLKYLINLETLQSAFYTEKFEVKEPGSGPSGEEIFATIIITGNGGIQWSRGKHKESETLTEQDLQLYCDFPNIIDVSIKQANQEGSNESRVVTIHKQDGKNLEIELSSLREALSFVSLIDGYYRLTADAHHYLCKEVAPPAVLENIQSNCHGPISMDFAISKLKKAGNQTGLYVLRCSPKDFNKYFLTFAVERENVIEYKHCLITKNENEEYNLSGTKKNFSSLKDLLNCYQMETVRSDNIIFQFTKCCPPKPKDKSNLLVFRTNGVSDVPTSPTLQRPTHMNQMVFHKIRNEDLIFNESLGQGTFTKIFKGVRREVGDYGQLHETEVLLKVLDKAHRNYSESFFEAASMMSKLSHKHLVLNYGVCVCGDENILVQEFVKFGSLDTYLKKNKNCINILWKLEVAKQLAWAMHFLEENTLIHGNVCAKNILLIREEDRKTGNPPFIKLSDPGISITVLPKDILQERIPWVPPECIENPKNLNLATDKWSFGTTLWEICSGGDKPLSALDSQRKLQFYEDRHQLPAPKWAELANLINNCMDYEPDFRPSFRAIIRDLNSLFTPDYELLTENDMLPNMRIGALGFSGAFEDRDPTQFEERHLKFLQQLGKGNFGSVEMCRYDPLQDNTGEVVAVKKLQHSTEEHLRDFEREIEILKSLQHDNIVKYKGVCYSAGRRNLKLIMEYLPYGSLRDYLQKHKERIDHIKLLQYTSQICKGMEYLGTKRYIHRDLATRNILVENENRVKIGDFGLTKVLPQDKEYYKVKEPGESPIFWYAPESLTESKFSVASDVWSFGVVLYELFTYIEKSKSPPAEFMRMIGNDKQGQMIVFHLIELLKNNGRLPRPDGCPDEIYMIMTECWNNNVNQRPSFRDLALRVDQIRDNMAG
Method: Kinase assays can be performed by measurement of incorporation of γ-^33P ATP into immobilized myelin basic protein (MBP). High binding white 384 well plates (Greiner) are coated with MBP (Sigma # M-1891) by incubation of 60 μL well of 20 μg/mL MBP in Tris-buffered saline (TBS; 50 mM Tris pH 8.0, 138 mM NaCl, 2.7 mM KCl) for 24 h at 4° C. Plates are washed 3× with 100 μL TBS. Kinase reactions are carried out in a total volume of 34 μL in kinase buffer (according to the need to make, for example, 5 mM Hepes pH 7.6, 15 mM NaCl, 0.01% bovine gamma globulin (Sigma #1-5506), 10 mM MgCl2, 1 mM DTT, 0.02% TritonX-100). Compound dilutions are performed in DMSO and added to assay wells to a final DMSO concentration of 1%. Each data point is measured in duplicate, and at least two duplicate assays are performed for each individual compound determination. Enzyme is added to final concentrations of 10 nM or 20 nM, for example. A mixture of unlabeled ATP and γ-^33P ATP is added to start the reaction (2×10^6 cpm of γ-^33P ATP per well (3000 Ci/mmole) and 10 μM unlabeled ATP, typically. The reactions are carried out for 1 hour at room temperature with shaking. Plates are washed 7× with TBS, followed by the addition of 50 μL well scintillation fluid (Wallac). Plates are read using a Wallac Trilux counter. This is only one format of such assays; various other formats are possible, as known to one skilled in the art.
as §1
as §2, with “JAK2 (h)” for “JAK1 (h)”, “with 8” for “with 20”, “mM MOPS” for “mM Tris/HCl”, “pH 7.0,” for “pH 7.5,”, “EDTA, 100” for “EDTA, 500”
as §3

Aurora-A (h) = target: T3, Aurora-A (h) (Homo sapiens, UniProt O14965); assay: Aurora-A (h) kinase assay; type: biochemical; settings: [γ-33P-ATP] 10 μM or KM values; 40 minutes at room temperature
T3 construct: purchased Millipore UK Ltd (assays performed there as a service)
T3 sequence (O14965 1-403): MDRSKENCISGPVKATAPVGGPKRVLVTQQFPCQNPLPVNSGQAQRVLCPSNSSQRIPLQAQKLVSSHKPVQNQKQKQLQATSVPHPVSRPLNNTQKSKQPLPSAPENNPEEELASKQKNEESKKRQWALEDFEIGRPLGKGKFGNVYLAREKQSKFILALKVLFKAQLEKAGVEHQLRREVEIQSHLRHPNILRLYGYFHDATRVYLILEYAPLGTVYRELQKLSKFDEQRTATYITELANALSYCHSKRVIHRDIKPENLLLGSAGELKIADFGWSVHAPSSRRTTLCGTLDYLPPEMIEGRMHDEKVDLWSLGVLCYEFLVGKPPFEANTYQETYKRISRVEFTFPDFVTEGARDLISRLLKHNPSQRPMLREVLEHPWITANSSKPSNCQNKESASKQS
Method: as §1
Aurora-A (h) is incubated with 8 mM MOPS pH 7.0, 0.2 mM EDTA, 200 μM LRRASLG (Kemptide), 10 mM MgAcetate and [γ-^33P-ATP] […] The reaction is initiated by the addition of the MgATP mix. After incubation for 40 minutes at room temperature, the reaction is stopped by the addition of 3% phosphoric acid solution. 10 μL of the reaction is then spotted onto a P30 filtermat and washed three times for 5 minutes in 75 mM phosphoric acid and once in methanol prior to drying and scintillation counting.
as §3

[1] = Compound stability in human liver microsomes; type: in vitro ADME; settings: for half-life at 5 μM: human liver microsomes 0.5 mg protein/mL, compound 5 μM, NADPH 1.0 mM, pH 7.4, 37° C., read-out: Human T1/2; for CLint scaled at 5 μM: liver microsomes, pH 7.4, in vivo CLint extrapolated from human liver microsome incubation
How it was run: (§4)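 Compounds (5 μM) incubated at 37 °C with human or rat liver microsomes (0.5 mg protein/mL) and 1.0 mM NADPH in 100 mM phosphate buffer pH 7.4, 0.05% DMSO, in duplicate. Sampled 0–60 min, quantified by LC/MS/MS as % of time zero; CLint extrapolated.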

[2] = Compound stability in rat liver microsomes; type: in vitro ADME; settings: for CLint scaled at 5 μM: liver microsomes, pH 7.4, in vivo CLint extrapolated from rat liver microsome incubation; for half-life at 5 μM: rat liver microsomes 0.5 mg protein/mL, compound 5 μM, NADPH 1.0 mM, pH 7.4, 37° C., read-out: Rat T1/2
How it was run: as §4

[3] = Pharmacokinetics after intravenous and oral administration in rats; type: in vivo; settings: for Clearance (CL) after iv dosing / AUC(0-t) / half-life / Vd: dose 1 mg/kg (Ex. 9: 0.6, Ex. 18: 0.5, Ex. 50: 0.96 mg/kg), iv dosing; for AUC(0-t) / half-life / Vd / bioavailability: rat, plasma; for Vd: read-out: Vss; for bioavailability: oral (generally 5 or 10 mg/kg) versus iv dosing, read-out: F (oral bioavailability)
How it was run: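 Rats dosed i.v. (about 0.5, 0.6, 1 or 2 mg/kg) or p.o. (5 or 10 mg/kg) as solution, suspension or capsule. Plasma sampled over 24 h and quantified by LC/MS/MS in MRM mode with ESI.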

[4] = system: PMA-induced increase in mouse ear thickness and weight; assay: Topical PMA-induced acute atopic dermatitis in ICR mice; type: in vivo; settings: ICR female mice, 0.3 mg/ear/bid topical; for thickness (right ear) / Weight (right ear): 30 minutes before and 15 minutes after PMA, Mean±Sem; for thickness (right ear) / thickness Inhibition ratio: 6 hours after PMA
Method: ICR female mice (20-30 g), five mice or nine mice/group, were used in this study. Five micrograms of PMA (phorbol 12-myristate 13-acetate) in 20 μL of ethanol was applied topically to the anterior and posterior surface of the right ear of each mouse. Twenty microliters of vehicle (ethanol/acetone ([…])=1/1); 0.3 mg of EX. 68 ([…]); EX. 76, EX. 50, EX. 92 or EX. 65 (0.3 mg […]) were administrated to the same areas 30 minutes before and 15 minutes after PMA application. The thickness of right ears of each mouse was measured 6 hours after PMA stimulation. Ear weight of right ears of each mouse was weighed with analytical balance Each value represents the Mean±Sem. Statistical significance compared with model groups (*P<0.05; **P<0.01). Tables 5-1, 5-2 and 5-3 listed the inhibitory effect on PMA-induced increase in mouse ear thickness and weight. The compounds of the present invention have a good inhibitory effect on PMA-induced increase in mouse ear thickness and weight.

T1 sequence (P23458 whole entry): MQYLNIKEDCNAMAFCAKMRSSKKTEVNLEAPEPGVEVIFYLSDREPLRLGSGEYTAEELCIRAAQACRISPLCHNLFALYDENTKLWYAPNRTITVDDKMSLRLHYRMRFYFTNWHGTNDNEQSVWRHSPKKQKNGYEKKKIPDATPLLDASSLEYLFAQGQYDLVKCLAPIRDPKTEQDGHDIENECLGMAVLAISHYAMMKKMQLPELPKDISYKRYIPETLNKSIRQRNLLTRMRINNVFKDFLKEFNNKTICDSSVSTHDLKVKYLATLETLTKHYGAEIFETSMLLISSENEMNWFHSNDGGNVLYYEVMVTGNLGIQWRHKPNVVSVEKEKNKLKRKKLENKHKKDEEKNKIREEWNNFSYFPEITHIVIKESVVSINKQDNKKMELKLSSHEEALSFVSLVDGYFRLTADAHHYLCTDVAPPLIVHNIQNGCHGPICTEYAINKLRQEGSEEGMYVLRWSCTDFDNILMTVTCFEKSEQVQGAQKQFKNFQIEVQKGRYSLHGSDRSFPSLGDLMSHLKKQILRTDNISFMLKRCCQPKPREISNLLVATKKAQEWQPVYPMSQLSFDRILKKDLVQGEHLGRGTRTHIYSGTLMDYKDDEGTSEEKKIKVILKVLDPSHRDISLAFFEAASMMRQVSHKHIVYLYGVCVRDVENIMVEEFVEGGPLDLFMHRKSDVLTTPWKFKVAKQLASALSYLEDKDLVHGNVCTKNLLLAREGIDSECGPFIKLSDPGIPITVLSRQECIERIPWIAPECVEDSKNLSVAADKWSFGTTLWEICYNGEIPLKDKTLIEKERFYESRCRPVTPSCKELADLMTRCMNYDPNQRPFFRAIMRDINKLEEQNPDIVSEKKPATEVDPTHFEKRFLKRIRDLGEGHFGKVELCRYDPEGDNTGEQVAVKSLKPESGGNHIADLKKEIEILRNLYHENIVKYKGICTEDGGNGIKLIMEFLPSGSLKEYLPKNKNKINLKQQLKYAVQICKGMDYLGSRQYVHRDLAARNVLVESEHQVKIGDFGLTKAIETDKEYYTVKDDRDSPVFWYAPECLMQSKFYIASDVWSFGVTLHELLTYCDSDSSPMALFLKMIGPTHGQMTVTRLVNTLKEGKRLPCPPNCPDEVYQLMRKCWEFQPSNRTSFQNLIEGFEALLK

Row | SMILES | IC50 (JAK1 (h)) [nM] | IC50 (JAK2 (h)) [nM] | IC50 (Aurora-A (h)) [nM] | half-life at 5 μM [1] [min] | CLint scaled at 5 μM [1] [mL/min/kg] | CLint scaled at 5 μM [2] [mL/min/kg] | half-life at 5 μM [2] [min] | Clearance (CL) after iv dosing [3] [mL/min/kg] | AUC(0-t) [3] [ng·h/mL] | half-life [3] [min] | Vd [3] [L/kg] | bioavailability [3] [%] | Weight Inhibition ratio [4] [%] | thickness (right ear) [4] | Weight (right ear) [4] | thickness Inhibition ratio [4] [%]
1 | Cc1cn2ccc(Nc3ncc(Cl)c(NC4CCN(c5ccc(C#N)nn5)CC4)n3)cc2n1 [Example 27, 6-(4-((5-chloro-2-((2-methylimidazo[1,2-a]pyridin-7-yl)amino)pyrimidin-4-yl)amino)piperidin-1-yl)pyridazine-3-carbonitrile] | < 0.3 | 10 | 467 |  |  |  |  |  |  |  |  |  |  |  |  | 
2 | N#Cc1ccc(N2CCC(Nc3nc(Nc4ccn5cc(C(F)F)nc5c4)ncc3Cl)CC2)nn1 [Example 28, 6-(4-((5-chloro-2-((2-(difluoromethyl)imidazo[1,2-a]pyridin-7-yl)amino)pyrimidin-4-yl)amino)piperidin-1-yl)pyridazine-3-carbonitrile] | 0.5 |  |  | 41.5 | 41.9 | 164 | 15.1 | 14 | 1220 | 33.6 | 0.56 | 56.1 |  |  |  | 
3 | CC(C)(O)Cc1cn2ccc(Nc3ncc(Cl)c(NC4CCN(c5ccc(C#N)nn5)CC4)n3)cc2n1 [Example 38, 6-(4-((5-chloro-2-((2-(2-hydroxy-2-methylpropyl)imidazo[1,2-a]pyridin-7-yl)amino)pyrimidin-4-yl)amino)piperidin-1-yl)pyridazine-3-carbonitrile] | 0.9 | 41 | 440 |  |  |  |  |  |  |  |  |  |  |  |  | 
4 | Cn1cnc2cc(Nc3ncc(Cl)c(NC4CCN(c5ccc(C#N)nn5)CC4)n3)ccc21 [Example 50, 6-(4-((5-chloro-2-((1-methyl-1H-benzo[d]imidazol-5-yl)amino)pyrimidin-4-yl)amino)piperidin-1-yl)pyridazine-3-carbonitrile] |  |  |  | 55.6 | 31.3 | 58.2 | 29.9 | 14.2 | 1210 | 63 | 1.17 | 51.8 | 39.95 | 0.321 ± 0.022** mm | 25.222 ± 1.998** mg | 46.89
5 | COC(=O)Cc1nc2cc(Nc3ncc(Cl)c(NC4CCN(c5ccc(C#N)nn5)CC4)n3)ccn2n1 [Example 58, methyl 2-(7-((5-chloro-4-((1-(6-cyanopyridazin-3-yl)piperidin-4-yl)amino)pyrimidin-2-yl)amino)-[1,2,4]triazolo[1,5-a]pyridin-2-yl)acetate] | 0.8 | 27 | > 300 |  |  |  |  |  |  |  |  |  |  |  |  | 
6 | N#Cc1ccc(N2CCC(Nc3nc(Nc4cnc5c(c4)ncn5CCO)ncc3Cl)CC2)nc1 [Example 92, 6-(4-((5-chloro-2-((3-(2-hydroxyethyl)-3H-imidazo[4,5-b]pyridin-6-yl)amino)pyrimidin-4-yl)amino)piperidin-1-yl)nicotinonitrile] |  |  |  |  |  |  |  |  |  |  |  |  | 72.30 | 0.319 ± 0.027** mm | 21.444 ± 1.952** mg | 60.03

Continued, in another order:

Row | IC50 (JAK1 (h)) [nM] | IC50 (JAK2 (h)) [nM] | IC50 (Aurora-A (h)) [nM] | half-life at 5 μM [1] [min] | CLint scaled at 5 μM [1] [mL/min/kg] | CLint scaled at 5 μM [2] [mL/min/kg] | half-life at 5 μM [2] [min] | Clearance (CL) after iv dosing [3] [mL/min/kg] | AUC(0-t) [3] [ng·h/mL] | half-life [3] [min] | Vd [3] [L/kg] | bioavailability [3] [%] | SMILES | Weight Inhibition ratio [4] [%] | thickness (right ear) [4] | Weight (right ear) [4] | thickness Inhibition ratio [4] [%]
7 | < 0.3 | 23 | 1460 |  |  |  |  |  |  |  |  |  | CC(C)(O)Cc1cnc2cc(Nc3ncc(Cl)c(NC4CCN(c5ccc(C#N)cn5)CC4)n3)ccn12 [Example 42, 6-(4-((5-chloro-2-((3-(2-hydroxy-2-methylpropyl)imidazo[1,2-a]pyridin-7-yl)amino)pyrimidin-4-yl)amino)piperidin-1-yl)nicotinonitrile] |  |  |  | 
8 | 0.9 | 5 | > 300 |  |  |  |  |  |  |  |  |  | CC(O)Cc1nc2cc(Nc3ncc(Cl)c(NC4CCN(c5ccc(C#N)cn5)CC4)n3)ccn2n1 (stereo not shown) [Example 57, 6-(4-((5-chloro-2-((2-(2-hydroxypropyl)-[1,2,4]triazolo[1,5-a]pyridin-7-yl)amino)pyrimidin-4-yl)amino)piperidin-1-yl)nicotinonitrile] |  |  |  | 
9 | < 0.3 |  |  | 419 | 4.1 | 25.5 | 97.3 | 162 | 1710 | 79.8 | 0.946 | 99.6 | CC(C)(O)c1nc2cc(Nc3ncc(Cl)c(NC4CCN(c5ccc(C#N)cc5)CC4)n3)ccn2n1 [Example 81, 4-(4-((5-chloro-2-((2-(2-hydroxypropan-2-yl)-[1,2,4]triazolo[1,5-a]pyridin-7-yl)amino)pyrimidin-4-yl)amino)piperidin-1-yl)benzonitrile] |  |  |  | 
